Reference: US20130079383A1, “Lipid Compounds Targeting VLA-4” (ARROWHEAD RESEARCH CORPORATION, priority 2011, published 2013)
Counter-ions that a name gives are not always drawn.

What follows are compounds tested on KIF11 mRNA (assay: KIF11 mRNA knockdown in MV4-11 cells by LNP-formulated KIF11 siRNA (relative to 18S ribosomal RNA)). Conditions: added with no formulation as a control.
Assay type: cell-based, human
Description: FIG. 1. Bar graph illustrating KIF11 mRNA knockdown in MV4-11 cells (relative to 18S ribosomal RNA as a control) with various LNP formulations containing KIF11 siRNA (formulation nos. 54F, 54I, 54L, and 54O).
The human cancer cell line MV4-11 was maintained in media supplemented with 10% heat-inactivated Fetal Bovine Serum (HI-FBS; Gibco/BRL, Gaithersburg, Md.) and 2 mM L-glutamine (Gibco/BRL).
MV4-11 suspension cells in 1 ml of culturing medium were seeded in 24-well plates 24 h before transfection and RNA quantification targeting siRNA were formulated in LNPs and directly added to the medium for transfection. Cells were then collected for RNA quantification.
Sample collection and mRNA purification for in vitro studies were performed as follows. MV4-11 cells were lysed directly on the plate with RNA lysis buffer (Qiagen). Suspension cells were collected into tubes and spun down at 2,000 rpm for 1 min, then the cell pellets were lysed with RNA lysis buffer (Qiagen). […]
Total RNA from all collected samples was purified using Qiagen RNeasy Kit following the manufacturer's protocol. Relative quantification of target mRNA and 18S ribosomal RNA gene expression was carried out with cDNA Reverse Transcription Reagents from Applied Biosystems followed by Taqman Gene Expression Assays (Applied Biosystems) using the manufacturer's protocol. […]

| SMILES | knockdown of KIF11 expression |
| --- | --- |
| Cc1cccc(Cl)c1C(=O)N[C@@H](Cc1ccc(NC(=O)c2c(Cl)cccc2Cl)cc1)C(=O)O [Example 27, (S)-2-(2-Chloro-6-methyl-benzoylamino)-3-[4-(2,6-dichloro-benzoylamino)-phenyl]-propionic acid] | no knockdown |

These compounds were tested against T1, VLA-4 (Homo sapiens, UniProt P05556+P13612) (assay: VLA-4/VCAM binding (adhesion) assay in Jurkat cells). Conditions: Jurkat cells activated with 0.5 mM Mn2+, VCAM-1-coated plates, 45 min at 37° C.
T1 construct: Jurkat cells express high levels of VLA-4 on their membrane surface; host or cells: Jurkat Clone E6-1
Assay type: cell-based
Description: The following adhesion assay has been reported previously and used in this invention with minor modification. See U.S. Pat. Nos. 6,229,011 and 6,380,387 both of which are incorparated herein by reference in their entirety. […] Each assay was conducted in a 96-well plate with VCAM-1 used as the counter ligand for the cells (i.e., VCAM-1 was bound to the surface of the wells). More specifically, 96-well high-binding F96 Maxisorp immuno microtiter plates (Nunc) were coated overnight with 25 ng/well of VCAM-1. On the day of the experiment, plates were blocked for 1 h with PBS buffer containing 1% nonfat dry milk to eliminate nonspecific binding. The plates were then washed with DPBS (Dulbecco's Phosphate Buffered Saline) and blotted dry. Any excess liquid was carefully aspirated from the wells. As a control, the small molecule antagonist (27) for inhibiting VLA-4 referred to above was added to control wells in buffer containing 4% DMSO and diluted down the plate, typically in a concentration range of 1000 nM to 0.2 nM. Jurkat Clone E6-1 cells (ATCC) were labeled with 100 μg/mL 6-carboxyfluorescein diacetate, a fluorescent dye, and then activated with RPMI 1640 medium containing 0.5 mM of the divalent cation Mn^2+ and 0.05% bovine serum albumin. It is noted that this activation is needed to achieve maximal binding for the ligand and may simulate the activation of integrins by cytokines and chemokines in vivo. […] To assess VLA-4 inhibition of the VLA-4 targeting lipids (from the examples), Jurkat cells (expressing high levels of VLA-4) were added to the VCAM-1-coated plates to a final concentration of 2×10^5 cells/well in 96-well plates and allowed to incubate with the test lipids (from the examples) for 45 min at 37° C. After removing unbound cells by gently washing the wells with PBS, the fluorescence signal from the bound cells was read on a Tecan Safire2 microplate reader at 450 nm. Points were plotted and the IC50s of each lipid were determined by regression analysis using the linear portion of the concentration-response curve.

T1 sequence (P13612 34-1032): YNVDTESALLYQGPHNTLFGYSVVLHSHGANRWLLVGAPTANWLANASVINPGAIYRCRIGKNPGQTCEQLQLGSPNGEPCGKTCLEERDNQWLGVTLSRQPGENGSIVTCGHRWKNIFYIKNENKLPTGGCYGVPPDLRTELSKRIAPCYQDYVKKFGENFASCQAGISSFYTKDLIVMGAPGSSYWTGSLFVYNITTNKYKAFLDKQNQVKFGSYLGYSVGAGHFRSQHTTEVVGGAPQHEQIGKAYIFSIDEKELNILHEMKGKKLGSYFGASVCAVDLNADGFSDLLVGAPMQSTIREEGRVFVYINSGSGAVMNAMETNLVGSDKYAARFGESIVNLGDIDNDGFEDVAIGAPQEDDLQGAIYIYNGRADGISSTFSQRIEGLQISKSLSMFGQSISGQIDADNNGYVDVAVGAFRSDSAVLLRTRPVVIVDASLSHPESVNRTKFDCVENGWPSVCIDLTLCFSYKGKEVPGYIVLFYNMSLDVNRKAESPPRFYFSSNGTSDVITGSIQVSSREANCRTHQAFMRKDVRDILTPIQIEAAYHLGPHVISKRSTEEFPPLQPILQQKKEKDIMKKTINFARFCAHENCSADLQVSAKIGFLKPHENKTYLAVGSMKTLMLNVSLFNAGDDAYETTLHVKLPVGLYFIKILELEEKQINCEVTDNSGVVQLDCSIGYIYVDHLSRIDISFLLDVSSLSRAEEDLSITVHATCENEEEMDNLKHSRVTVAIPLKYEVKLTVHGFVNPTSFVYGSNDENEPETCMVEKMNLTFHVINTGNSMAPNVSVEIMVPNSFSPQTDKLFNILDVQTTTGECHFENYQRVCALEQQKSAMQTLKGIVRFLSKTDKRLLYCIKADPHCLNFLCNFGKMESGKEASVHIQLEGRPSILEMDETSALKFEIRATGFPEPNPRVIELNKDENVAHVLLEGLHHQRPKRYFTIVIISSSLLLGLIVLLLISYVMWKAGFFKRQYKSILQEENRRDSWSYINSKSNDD
T1 sequence (P05556 21-798): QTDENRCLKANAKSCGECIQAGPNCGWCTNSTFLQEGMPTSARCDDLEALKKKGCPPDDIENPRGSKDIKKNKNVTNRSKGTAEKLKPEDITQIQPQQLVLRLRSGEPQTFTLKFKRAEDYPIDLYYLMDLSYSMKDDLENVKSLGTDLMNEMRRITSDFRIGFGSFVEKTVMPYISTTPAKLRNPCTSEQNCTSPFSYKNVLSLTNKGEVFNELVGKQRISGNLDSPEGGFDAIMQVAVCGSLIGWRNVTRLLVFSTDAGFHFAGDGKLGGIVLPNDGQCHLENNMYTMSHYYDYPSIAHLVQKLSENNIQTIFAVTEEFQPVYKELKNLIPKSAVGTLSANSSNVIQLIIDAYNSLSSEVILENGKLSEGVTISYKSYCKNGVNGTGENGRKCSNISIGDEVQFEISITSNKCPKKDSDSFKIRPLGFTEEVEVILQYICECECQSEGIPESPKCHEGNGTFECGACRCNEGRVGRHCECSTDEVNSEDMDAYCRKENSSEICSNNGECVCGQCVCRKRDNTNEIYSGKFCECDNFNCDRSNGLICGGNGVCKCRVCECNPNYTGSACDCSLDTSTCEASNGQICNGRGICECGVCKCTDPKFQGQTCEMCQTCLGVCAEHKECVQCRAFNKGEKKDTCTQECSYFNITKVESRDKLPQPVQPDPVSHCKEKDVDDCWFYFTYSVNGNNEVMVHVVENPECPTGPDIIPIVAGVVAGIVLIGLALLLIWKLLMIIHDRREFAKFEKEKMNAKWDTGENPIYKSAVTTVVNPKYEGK

| SMILES | IC50 [nM] |
| --- | --- |
| CCCCCCCCCCCCCCCCOCC(C[N+](C)(C)CCCNC(=O)CCOCCOCCOCCOCCOCCOCCOCCOCCOCCC(=O)NCCC1(C(=O)N[C@@H](Cc2ccc(NC(=O)c3c(Cl)cccc3Cl)cc2)C(=O)O)CCCC1)OCCCCCCCCCCCCCCCC (stereo partly drawn) [Example 3, [[2,3-bis(hexadecyloxy)propyl][3-[[3-[2-[2-[2-[2-[2-[2-[2-[2-[[3-[[2-[1-[[[(S)-1-carboxy-2-[4-(2,6-dichloro-benzoylamino)phenyl]ethyl]amino]carbonyl]cyclopentyl]ethyl]amino]-3-oxopropyl]oxy]ethoxy]ethoxy]ethoxy]ethoxy]ethoxy]ethoxy]ethoxy]ethoxy]-1-oxopropyl]amino]propyl]dimethylaminium trifluoroacetate] | 1000 |
| CCCCCCCCCCCCCCCCCCCCOCC(C[N+](C)(C)CCCNC(=O)CCOCCOCCOCCOCCOCCOCCOCCOCCOCCC(=O)NCCC1(C(=O)N[C@@H](Cc2ccc(NC(=O)c3c(Cl)cccc3Cl)cc2)C(=O)O)CCCC1)OCCCCCCCCCCCCCCCCCCCC (stereo partly drawn) [Example 7, [2,3-bis(icosanyloxy)propyl][3-[[3-[2-[2-[2-[2-[2-[2-[2-[2-[[3-[[2-[1-[[[(S)-1-carboxy-2-[4-(2,6-dichloro-benzoylamino)phenyl]ethyl]amino]carbonyl]cyclopentyl]ethyl]amino]-3-oxopropyl]oxy]ethoxy]ethoxy]ethoxy]ethoxy]ethoxy]ethoxy]ethoxy]ethoxy]-1-oxopropyl]amino]propyl]dimethylaminium bromide] | 89 |
| CCCCCCCCCCCCOCC(C[N+](C)(C)CCCNC(=O)CCOCCOCCOCCOCCOCCOCCOCCOCCOCCC(=O)NCCC1(C(=O)N[C@@H](Cc2ccc(NC(=O)c3c(Cl)cccc3Cl)cc2)C(=O)O)CCCC1)OCCCCCCCCCCCC (stereo partly drawn) [Example 1, [2,3-bis(dodecyloxy)propyl][3-[[3-[2-[2-[2-[2-[2-[2-[2-[2-[[3-[[2-[1-[[[(S)-1-carboxy-2-[4-(2,6-dichloro-benzoylamino)phenyl]ethyl]amino]carbonyl]cyclopentyl]ethyl]amino]-3-oxopropyl]oxy]ethoxy]ethoxy]ethoxy]ethoxy]ethoxy]ethoxy]ethoxy]ethoxy]-1-oxopropyl]amino]propyl]dimethylaminium trifluoroacetate] | 587 |
| CCCCCCCCCCCCCCCCCCCCOCC(CN(C)CCCNC(=O)CCOCCOCCOCCOCCOCCOCCOCCOCCOCCC(=O)NCCC1(C(=O)N[C@@H](Cc2ccc(NC(=O)c3c(Cl)cccc3Cl)cc2)C(=O)O)CCCC1)OCCCCCCCCCCCCCCCCCCCC (stereo partly drawn) [Example 8, (S)-Alpha-[[[1-[2-[[3-[2-[2-[2-[2-[2-[2-[2-[2-[[3-[[3-[[2,3-bis(icosanyloxy)propyl]methylamino]propyl]amino]-3-oxopropyl]oxy]ethoxy]ethoxy]ethoxy]ethoxy]ethoxy]ethoxy]ethoxy]ethoxy]-1-oxoproyl]amino]ethyl]cyclopentyl]carbonyl]amino]-4-(2,6-dichlorobenzoylamino)benzenepropanoic acid] | 1000 |
| CCCCCCCCCCCCCCCCCCOCC(C[N+](C)(C)CCCNC(=O)CCOCCOCCOCCOCCOCCOCCOCCOCCOCCC(=O)NCCC1(C(=O)N[C@@H](Cc2ccc(NC(=O)c3c(Cl)cccc3Cl)cc2)C(=O)O)CCCC1)OCCCCCCCCCCCCCCCCCC (stereo partly drawn) [Example 6, [2,3-bis(octadecyloxy)propyl][3-[[3-[2-[2-[2-[2-[2-[2-[2-[2-[[3-[[2-[1-[[[(S)-1-carboxy-2-[4-(2,6-dichloro-benzoylamino)phenyl]ethyl]amino]carbonyl]cyclopentyl]ethyl]amino]-3-oxopropyl]oxy]ethoxy]ethoxy]ethoxy]ethoxy]ethoxy]ethoxy]ethoxy]ethoxy]-1-oxopropyl]amino]propyl]dimethylaminium bromide] | 133 |

The remaining lines, values ahead:

| IC50 [nM] | SMILES |
| --- | --- |
| 308 | CCCCCCCCCCCCCCCCOCC(C[N+](C)(C)CCCNC(=O)CCC(=O)NCCOCCOCCOCCOCCOCCOCCOCCOCCOCCOCCOCCOCCC(=O)NCCC1(C(=O)NC(Cc2ccc(NC(=O)c3c(Cl)cccc3Cl)cc2)C(=O)O)CCCC1)OCCCCCCCCCCCCCCCC [Example 4, [2,3-bis(hexadecyloxy)propyl][3-[[4-[[2-2-[2-[2-[2-[2-[2-[2-[2-[2-[2-[2-[[3-[[2-[1-[[[(S)-1-carboxy-2-[4-(2,6-dichloro-benzoylamino)phenyl]ethyl]amino]carbonyl]cyclopentyl]ethyl]amino]-3-oxopropyl]oxy]ethoxy]ethoxy]ethoxy]ethoxy]ethoxy]ethoxy]ethoxy]ethoxy]ethoxy]ethoxy]ethoxy]ethyl]amino]-1,4-dioxobutyl]amino]propyl]dimethylaminium trifluoroacetate] |
| 6 | CCCCCCCCCCCCCCCCOCC(CN(C)CCCNC(=O)CCC(=O)NCCOCCOCCOCCOCCOCCOCCOCCOCCOCCOCCOCCOCCC(=O)NCCC1(C(=O)N[C@@H](Cc2ccc(NC(=O)c3c(Cl)cccc3Cl)cc2)C(=O)O)CCCC1)OCCCCCCCCCCCCCCCC (stereo partly drawn) [Example 5, (S)-Alpha-[[[1-[2-[[3-[2-[2-[2-[2-[2-[2-[2-[2-[2-[2-[2-[2-[[4-[[3-[[2,3-bis(hexadecyloxy)propyl]methylamino]propyl]amino]-1,4-dioxobutyl]amino]ethoxy]ethoxy]ethoxy]ethoxy]ethoxy]ethoxy]ethoxy]ethoxy]ethoxy]ethoxy]ethoxy]ethoxy]-1-oxoproyl]amino]ethyl]cyclopentyl]carbonyl]amino]-4-(2,6-dichlorobenzoylamino) benzenepropanoic acid] |
| 942 | CCCCCCCCCCCCOCC(C[N+](C)(C)CCCNC(=O)CCC(=O)NCCOCCOCCOCCOCCOCCOCCOCCOCCOCCOCCOCCOCCC(=O)NCCC1(C(=O)N[C@@H](Cc2ccc(NC(=O)c3c(Cl)cccc3Cl)cc2)C(=O)O)CCCC1)OCCCCCCCCCCCC (stereo partly drawn) [Example 2, [2,3-bis(dodecyloxy)propyl][3-[[4-[[2-[2-[2-[2-[2-[2-[2-[2-[2-[2-[2-[2-[[3-[[2-[1-[[[(S)-1-carboxy-2-[4-(2,6-dichloro-benzoylamino)phenyl]ethyl]amino]carbonyl]cyclopentyl]ethyl]amino]-3-oxopropyl]oxy]ethoxy]ethoxy]ethoxy]ethoxy]ethoxy]ethoxy]ethoxy]ethoxy]ethoxy]ethoxy]ethoxy]ethyl]amino]-1-4-dioxobutyl]amino]propyl]dimethylaminium trifluoroacetate] |
